{"source": "patent US20140205537A1", "about": "“LRRK2 INHIBITORS” (ZENOBIA THERAPEUTICS, INC., priority 2011, published 2014)", "type_in_all_cases": "biochemical", "key": {"BRAF": {"target": "BRAF (Homo sapiens, UniProt P15056)", "experiment": "Kinase selectivity panel: BRAF"}, "SYK": {"target": "SYK (Homo sapiens, UniProt P43405)", "experiment": "Kinase selectivity panel: SYK"}, "IRAK4": {"target": "T1, IRAK4 (Homo sapiens, UniProt Q9NWZ3)", "T1 sequence (Q9NWZ3 1-460)": "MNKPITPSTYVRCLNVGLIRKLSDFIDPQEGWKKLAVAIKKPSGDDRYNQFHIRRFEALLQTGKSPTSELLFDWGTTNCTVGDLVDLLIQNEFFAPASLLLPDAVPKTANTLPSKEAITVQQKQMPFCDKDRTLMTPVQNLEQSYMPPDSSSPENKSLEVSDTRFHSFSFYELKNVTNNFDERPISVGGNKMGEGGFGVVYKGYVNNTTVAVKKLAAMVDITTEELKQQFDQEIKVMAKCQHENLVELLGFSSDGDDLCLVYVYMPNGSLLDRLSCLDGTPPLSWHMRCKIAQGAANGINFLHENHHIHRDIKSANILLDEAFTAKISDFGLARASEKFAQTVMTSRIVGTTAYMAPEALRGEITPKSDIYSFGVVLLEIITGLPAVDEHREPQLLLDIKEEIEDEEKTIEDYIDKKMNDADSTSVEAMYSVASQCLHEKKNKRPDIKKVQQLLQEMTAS", "experiment": "Kinase selectivity panel: IRAK4"}, "AKT1": {"target": "AKT1 (Homo sapiens, UniProt P31749)", "sequence (P31749 whole entry, species assumed)": "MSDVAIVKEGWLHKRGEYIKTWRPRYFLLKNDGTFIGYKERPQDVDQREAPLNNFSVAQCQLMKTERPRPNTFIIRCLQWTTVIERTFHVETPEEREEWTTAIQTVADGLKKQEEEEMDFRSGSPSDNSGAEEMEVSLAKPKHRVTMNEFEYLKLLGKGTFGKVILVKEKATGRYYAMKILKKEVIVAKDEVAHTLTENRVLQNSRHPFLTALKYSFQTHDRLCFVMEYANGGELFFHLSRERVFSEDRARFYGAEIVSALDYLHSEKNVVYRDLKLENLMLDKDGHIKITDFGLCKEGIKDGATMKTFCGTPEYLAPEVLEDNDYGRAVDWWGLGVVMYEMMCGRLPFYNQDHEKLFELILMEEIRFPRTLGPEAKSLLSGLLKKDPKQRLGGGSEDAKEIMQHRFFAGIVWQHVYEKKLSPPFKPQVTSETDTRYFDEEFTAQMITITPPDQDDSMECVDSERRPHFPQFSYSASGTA", "experiment": "Kinase selectivity panel: AKT1"}, "IGF1R": {"target": "IGF1R (Homo sapiens, UniProt P08069)", "experiment": "Kinase selectivity panel: IGF1R"}, "GSK3beta": {"target": "GSK3beta (Homo sapiens, UniProt P49841)", "experiment": "Kinase selectivity panel: GSK3beta"}, "EPHA2": {"target": "EPHA2 (Homo sapiens, UniProt P29317)", "experiment": "Kinase selectivity panel: EPHA2"}, "FGFR1": {"target": "FGFR1 (Homo sapiens, UniProt P11362)", "experiment": "Kinase selectivity panel: FGFR1"}, "PIM1": {"target": "PIM1 (Homo sapiens, UniProt P11309)", "experiment": "Kinase selectivity panel: PIM1"}, "RET": {"target": "RET (Homo sapiens, UniProt P07949)", "experiment": "Kinase selectivity panel: RET"}, "TAK1-TAB1": {"target": "TAK1-TAB1 (Homo sapiens, UniProt O43318)", "sequence (O43318 1-303 limits assumed)": "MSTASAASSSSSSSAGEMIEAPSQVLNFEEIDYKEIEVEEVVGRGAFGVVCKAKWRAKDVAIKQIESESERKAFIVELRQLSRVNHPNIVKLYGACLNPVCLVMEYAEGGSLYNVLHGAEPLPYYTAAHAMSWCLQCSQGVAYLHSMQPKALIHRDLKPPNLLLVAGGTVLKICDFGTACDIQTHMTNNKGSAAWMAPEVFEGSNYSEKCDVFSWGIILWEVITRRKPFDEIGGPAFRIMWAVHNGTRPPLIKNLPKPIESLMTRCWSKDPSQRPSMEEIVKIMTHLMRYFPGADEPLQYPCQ", "sequence (Q15750 437-504 partner limits assumed)": "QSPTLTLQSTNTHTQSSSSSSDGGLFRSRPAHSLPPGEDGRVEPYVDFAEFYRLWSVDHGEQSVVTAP", "experiment": "Kinase selectivity panel: TAK1-TAB1"}, "CK1 gamma2": {"target": "CK1 gamma2 (Homo sapiens, UniProt P78368)", "experiment": "Kinase selectivity panel: CK1 gamma2"}, "IKKbeta": {"target": "IKKbeta (Homo sapiens, UniProt O14920)", "experiment": "Kinase selectivity panel: IKKbeta"}, "PAK4": {"target": "PAK4 (Homo sapiens, UniProt O96013)", "sequence (O96013 whole entry, species assumed)": "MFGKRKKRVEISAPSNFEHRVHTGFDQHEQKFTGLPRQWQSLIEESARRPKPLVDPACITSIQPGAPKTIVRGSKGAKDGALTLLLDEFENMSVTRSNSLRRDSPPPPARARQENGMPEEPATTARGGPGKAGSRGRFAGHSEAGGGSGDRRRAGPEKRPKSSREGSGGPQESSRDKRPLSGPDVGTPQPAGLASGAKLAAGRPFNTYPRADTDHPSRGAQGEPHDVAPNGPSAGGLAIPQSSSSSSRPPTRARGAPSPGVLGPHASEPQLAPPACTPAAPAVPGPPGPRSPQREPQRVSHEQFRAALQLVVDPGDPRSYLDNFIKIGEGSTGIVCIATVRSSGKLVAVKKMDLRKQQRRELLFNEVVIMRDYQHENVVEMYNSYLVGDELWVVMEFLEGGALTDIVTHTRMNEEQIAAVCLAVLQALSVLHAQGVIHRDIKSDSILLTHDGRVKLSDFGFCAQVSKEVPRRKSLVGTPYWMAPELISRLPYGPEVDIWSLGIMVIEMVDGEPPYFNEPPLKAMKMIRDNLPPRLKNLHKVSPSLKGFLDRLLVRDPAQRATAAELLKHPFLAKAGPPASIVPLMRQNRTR", "experiment": "Kinase selectivity panel: PAK4"}, "INSR": {"target": "INSR (Homo sapiens, UniProt P06213)", "sequence (P06213 28-1382, species assumed)": "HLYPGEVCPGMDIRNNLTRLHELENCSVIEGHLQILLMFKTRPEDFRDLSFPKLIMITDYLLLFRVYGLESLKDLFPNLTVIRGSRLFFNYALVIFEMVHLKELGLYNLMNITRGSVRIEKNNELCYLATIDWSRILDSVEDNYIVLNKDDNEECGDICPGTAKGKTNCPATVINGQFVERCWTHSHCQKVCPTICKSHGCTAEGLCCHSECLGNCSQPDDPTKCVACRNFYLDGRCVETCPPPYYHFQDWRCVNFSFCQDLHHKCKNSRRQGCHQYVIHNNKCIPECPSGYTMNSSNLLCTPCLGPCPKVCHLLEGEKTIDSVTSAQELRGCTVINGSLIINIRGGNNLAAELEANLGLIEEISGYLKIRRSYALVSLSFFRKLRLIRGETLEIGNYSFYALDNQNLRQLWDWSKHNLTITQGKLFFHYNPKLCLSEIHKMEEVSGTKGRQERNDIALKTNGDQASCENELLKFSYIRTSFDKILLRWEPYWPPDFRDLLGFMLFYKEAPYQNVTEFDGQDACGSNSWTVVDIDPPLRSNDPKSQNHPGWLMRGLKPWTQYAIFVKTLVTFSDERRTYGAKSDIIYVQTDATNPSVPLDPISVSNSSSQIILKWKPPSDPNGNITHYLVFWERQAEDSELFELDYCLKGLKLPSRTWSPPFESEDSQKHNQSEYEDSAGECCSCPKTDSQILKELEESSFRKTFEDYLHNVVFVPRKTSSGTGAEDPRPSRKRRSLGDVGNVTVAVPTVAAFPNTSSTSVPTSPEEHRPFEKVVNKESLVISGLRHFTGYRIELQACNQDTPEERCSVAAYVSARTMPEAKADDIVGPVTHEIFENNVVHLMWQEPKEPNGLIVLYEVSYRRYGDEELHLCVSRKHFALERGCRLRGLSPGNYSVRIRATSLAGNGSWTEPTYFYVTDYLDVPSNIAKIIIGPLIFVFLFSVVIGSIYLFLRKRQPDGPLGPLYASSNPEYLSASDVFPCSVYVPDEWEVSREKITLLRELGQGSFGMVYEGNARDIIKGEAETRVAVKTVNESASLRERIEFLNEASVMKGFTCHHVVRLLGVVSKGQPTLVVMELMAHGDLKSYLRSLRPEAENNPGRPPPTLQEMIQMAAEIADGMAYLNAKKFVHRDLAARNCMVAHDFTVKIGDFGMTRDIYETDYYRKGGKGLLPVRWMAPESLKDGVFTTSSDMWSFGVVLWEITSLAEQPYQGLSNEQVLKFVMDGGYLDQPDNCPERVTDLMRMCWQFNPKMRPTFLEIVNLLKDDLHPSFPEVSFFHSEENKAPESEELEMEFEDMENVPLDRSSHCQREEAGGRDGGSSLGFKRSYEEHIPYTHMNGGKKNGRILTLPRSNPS", "experiment": "Kinase selectivity panel: INSR"}, "MAPKAPK2": {"target": "MAPKAPK2 (Homo sapiens, UniProt P49137)", "sequence (P49137 whole entry, species assumed)": "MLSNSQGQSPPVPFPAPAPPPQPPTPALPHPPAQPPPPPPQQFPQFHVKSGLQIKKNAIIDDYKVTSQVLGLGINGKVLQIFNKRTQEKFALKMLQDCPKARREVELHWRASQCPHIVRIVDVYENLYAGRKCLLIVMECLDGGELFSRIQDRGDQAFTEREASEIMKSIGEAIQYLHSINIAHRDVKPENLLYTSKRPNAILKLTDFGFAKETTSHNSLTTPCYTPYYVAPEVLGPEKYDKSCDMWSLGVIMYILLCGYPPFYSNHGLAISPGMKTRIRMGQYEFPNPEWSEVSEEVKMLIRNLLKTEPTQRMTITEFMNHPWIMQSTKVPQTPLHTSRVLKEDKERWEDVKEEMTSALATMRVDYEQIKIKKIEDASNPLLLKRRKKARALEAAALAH", "experiment": "Kinase selectivity panel: MAPKAPK2"}, "PKA": {"target": "PKA (Homo sapiens, UniProt P17612)", "experiment": "Kinase selectivity panel: PKA"}, "LCK": {"target": "LCK (Homo sapiens, UniProt P06239)", "sequence (P06239 whole entry, species assumed)": "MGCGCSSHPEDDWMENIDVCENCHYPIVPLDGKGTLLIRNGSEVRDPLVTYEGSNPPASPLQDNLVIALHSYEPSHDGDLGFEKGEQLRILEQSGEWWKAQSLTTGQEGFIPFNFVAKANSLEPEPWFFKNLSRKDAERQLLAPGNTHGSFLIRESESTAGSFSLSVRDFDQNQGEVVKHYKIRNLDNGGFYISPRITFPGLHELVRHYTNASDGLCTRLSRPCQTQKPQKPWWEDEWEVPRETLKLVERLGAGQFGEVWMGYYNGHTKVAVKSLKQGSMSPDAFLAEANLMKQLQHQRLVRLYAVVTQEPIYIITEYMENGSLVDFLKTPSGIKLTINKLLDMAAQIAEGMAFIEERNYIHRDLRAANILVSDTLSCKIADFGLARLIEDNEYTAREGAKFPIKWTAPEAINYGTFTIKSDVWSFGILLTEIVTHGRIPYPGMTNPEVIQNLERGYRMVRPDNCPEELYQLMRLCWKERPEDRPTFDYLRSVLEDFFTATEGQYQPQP", "experiment": "Kinase selectivity panel: LCK"}, "HER2": {"target": "HER2 (Homo sapiens, UniProt P04626)", "experiment": "Kinase selectivity panel: HER2"}, "CDK1/cyclinB": {"target": "CDK1/cyclinB (Homo sapiens, UniProt P06493)", "experiment": "Kinase selectivity panel: CDK1/cyclinB"}, "AMPK A1/B1/G1": {"target": "AMPK A1/B1/G1 (Homo sapiens, UniProt Q13131)", "sequence (Q13131 whole entry)": "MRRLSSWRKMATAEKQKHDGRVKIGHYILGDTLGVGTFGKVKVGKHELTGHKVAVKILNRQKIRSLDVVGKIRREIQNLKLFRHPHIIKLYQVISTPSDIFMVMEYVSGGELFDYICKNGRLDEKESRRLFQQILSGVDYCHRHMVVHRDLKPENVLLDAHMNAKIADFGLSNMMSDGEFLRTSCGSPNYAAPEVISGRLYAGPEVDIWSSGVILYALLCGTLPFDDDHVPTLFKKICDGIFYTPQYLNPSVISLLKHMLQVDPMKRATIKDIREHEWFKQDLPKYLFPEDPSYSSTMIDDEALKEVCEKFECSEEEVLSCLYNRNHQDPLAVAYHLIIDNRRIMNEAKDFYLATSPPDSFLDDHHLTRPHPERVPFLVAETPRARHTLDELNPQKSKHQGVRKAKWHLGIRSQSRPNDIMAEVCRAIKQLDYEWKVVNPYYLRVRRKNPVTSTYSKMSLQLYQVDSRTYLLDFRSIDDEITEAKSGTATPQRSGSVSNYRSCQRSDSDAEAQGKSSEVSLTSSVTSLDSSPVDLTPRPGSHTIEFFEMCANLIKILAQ", "sequence (Q9Y478 whole entry partner)": "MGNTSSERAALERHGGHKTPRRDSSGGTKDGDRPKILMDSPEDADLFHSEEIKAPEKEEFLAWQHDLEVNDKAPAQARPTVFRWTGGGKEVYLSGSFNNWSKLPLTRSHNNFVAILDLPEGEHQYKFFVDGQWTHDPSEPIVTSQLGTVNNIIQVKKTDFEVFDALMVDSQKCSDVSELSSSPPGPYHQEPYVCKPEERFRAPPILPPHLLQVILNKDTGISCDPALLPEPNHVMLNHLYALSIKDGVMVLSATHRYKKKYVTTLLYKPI", "sequence (P54619 whole entry partner)": "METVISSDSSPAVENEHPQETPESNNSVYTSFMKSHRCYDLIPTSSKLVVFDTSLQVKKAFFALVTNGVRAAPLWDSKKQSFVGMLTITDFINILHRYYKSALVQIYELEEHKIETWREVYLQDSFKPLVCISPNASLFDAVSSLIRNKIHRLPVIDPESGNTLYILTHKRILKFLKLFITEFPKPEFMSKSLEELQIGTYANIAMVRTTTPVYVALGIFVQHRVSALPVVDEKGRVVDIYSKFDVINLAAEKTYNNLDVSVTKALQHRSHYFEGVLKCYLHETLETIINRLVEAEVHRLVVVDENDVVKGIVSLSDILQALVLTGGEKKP", "experiment": "Kinase selectivity panel: AMPK A1/B1/G1"}, "P70S6K": {"target": "P70S6K (Homo sapiens, UniProt P23443)", "experiment": "Kinase selectivity panel: P70S6K"}, "CK2 alpha 1": {"target": "CK2 alpha 1 (Homo sapiens, UniProt P68400)", "experiment": "Kinase selectivity panel: CK2 alpha 1"}, "MEK1": {"target": "MEK1 (Homo sapiens, UniProt Q02750)", "experiment": "Kinase selectivity panel: MEK1"}, "ROCK1": {"target": "ROCK1 (Homo sapiens, UniProt Q13464)", "experiment": "Kinase selectivity panel: ROCK1"}, "Tie2": {"target": "Tie2 (Homo sapiens, UniProt Q02763)", "experiment": "Kinase selectivity panel: Tie2"}, "CHEK1": {"target": "T2, CHEK1 (Homo sapiens, UniProt O14757)", "T2 sequence (O14757 1-476)": "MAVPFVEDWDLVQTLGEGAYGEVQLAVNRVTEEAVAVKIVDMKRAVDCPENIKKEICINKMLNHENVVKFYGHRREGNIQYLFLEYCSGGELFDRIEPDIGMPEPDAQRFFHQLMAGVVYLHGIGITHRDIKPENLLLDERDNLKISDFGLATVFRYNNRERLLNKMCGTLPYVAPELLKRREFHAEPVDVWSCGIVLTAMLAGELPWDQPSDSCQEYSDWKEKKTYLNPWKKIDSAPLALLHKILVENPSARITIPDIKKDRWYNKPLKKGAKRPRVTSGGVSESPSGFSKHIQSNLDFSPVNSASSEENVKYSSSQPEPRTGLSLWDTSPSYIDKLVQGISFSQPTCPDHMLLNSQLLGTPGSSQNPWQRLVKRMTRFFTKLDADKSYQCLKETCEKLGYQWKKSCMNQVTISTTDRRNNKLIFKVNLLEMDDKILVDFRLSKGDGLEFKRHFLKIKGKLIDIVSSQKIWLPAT", "experiment": "Kinase selectivity panel: CHEK1"}, "SRC": {"target": "SRC (Homo sapiens, UniProt P12931)", "experiment": "Kinase selectivity panel: SRC"}, "PLK1": {"target": "PLK1 (Homo sapiens, UniProt P53350)", "experiment": "Kinase selectivity panel: PLK1"}, "cMet": {"target": "cMet (Homo sapiens, UniProt P08581)", "experiment": "Kinase selectivity panel: cMet"}}, "data": [{"compound": "COc1ccc2c(c1)/C(=C/c1cnc(C3CCOCC3)[nH]1)C(=O)N2", "note": "[Compound 18, (3Z)-5-methoxy-3-[(2-tetrahydropyran-4-yl-1H-imidazol-5-yl)methylene]indolin-2-one]", "values": [{"measurement": "inhibition at 0.1 µM", "setting": "BRAF", "result": 18, "unit": "%"}, {"measurement": "inhibition at 0.1 µM", "setting": "SYK", "result": 8, "unit": "%"}, {"measurement": "IC50", "setting": "IRAK4", "result": "> 10", "unit": "µM"}, {"measurement": "inhibition at 0.1 µM", "setting": "IRAK4; @0.1 uM", "result": -1, "unit": "%"}, {"measurement": "inhibition at 0.1 µM", "setting": "AKT1", "result": -2, "unit": "%"}, {"measurement": "inhibition at 0.1 µM", "setting": "IGF1R", "result": 7, "unit": "%"}, {"measurement": "inhibition at 0.1 µM", "setting": "GSK3beta", "result": 0, "unit": "%"}, {"measurement": "inhibition at 0.1 µM", "setting": "EPHA2", "result": 2, "unit": "%"}, {"measurement": "inhibition at 0.1 µM", "setting": "FGFR1", "result": 9, "unit": "%"}, {"measurement": "inhibition at 0.1 µM", "setting": "PIM1", "result": -2, "unit": "%"}, {"measurement": "inhibition at 0.1 µM", "setting": "RET", "result": 3, "unit": "%"}, {"measurement": "inhibition at 0.1 µM", "setting": "TAK1-TAB1", "result": -3, "unit": "%"}, {"measurement": "inhibition at 0.1 µM", "setting": "CK1 gamma2", "result": 6, "unit": "%"}, {"measurement": "inhibition at 0.1 µM", "setting": "IKKbeta", "result": 7, "unit": "%"}, {"measurement": "inhibition at 0.1 µM", "setting": "PAK4", "result": 1, "unit": "%"}, {"measurement": "inhibition at 0.1 µM", "setting": "INSR", "result": 4, "unit": "%"}, {"measurement": "inhibition at 0.1 µM", "setting": "MAPKAPK2", "result": 4, "unit": "%"}, {"measurement": "inhibition at 0.1 µM", "setting": "PKA", "result": 2, "unit": "%"}, {"measurement": "inhibition at 0.1 µM", "setting": "LCK", "result": 3, "unit": "%"}, {"measurement": "inhibition at 0.1 µM", "setting": "HER2", "result": 4, "unit": "%"}, {"measurement": "inhibition at 0.1 µM", "setting": "CDK1/cyclinB", "result": 0, "unit": "%"}, {"measurement": "inhibition at 0.1 µM", "setting": "AMPK A1/B1/G1", "result": -1, "unit": "%"}, {"measurement": "inhibition at 0.1 µM", "setting": "P70S6K", "result": 5, "unit": "%"}, {"measurement": "inhibition at 0.1 µM", "setting": "CK2 alpha 1", "result": 6, "unit": "%"}, {"measurement": "inhibition at 0.1 µM", "setting": "MEK1", "result": 16, "unit": "%"}, {"measurement": "inhibition at 0.1 µM", "setting": "ROCK1", "result": 1, "unit": "%"}, {"measurement": "inhibition at 0.1 µM", "setting": "Tie2", "result": -2, "unit": "%"}, {"measurement": "IC50", "setting": "CHEK1", "result": "> 10", "unit": "µM"}, {"measurement": "inhibition at 0.1 µM", "setting": "CHEK1; @0.1 uM", "result": 3, "unit": "%"}, {"measurement": "inhibition at 0.1 µM", "setting": "SRC", "result": 13, "unit": "%"}, {"measurement": "inhibition at 0.1 µM", "setting": "PLK1", "result": 12, "unit": "%"}, {"measurement": "inhibition at 0.1 µM", "setting": "cMet", "result": 7, "unit": "%"}]}]}
